Test results taken from patent US20180353462A1, “[…] AGENTS […] FLAVONOID DERIVATIVES TARGETING KINASES, SIRTUINS AND ONCOGENIC AGENTS FOR THE TREATMENT OF CANCERS” (priority 2015, published 2018).
Where “and” joins values, the source holds several entries; their conditions need not be identical. Equal entries are not always repeated. Where two headings read alike, the source gives them in different places.

Key:
[1] = test system: MV4-11 (Leukemia); assay: WST-1 anticancer cell proliferation assay, MV4-11; type: cell-based; details: Table 4; read-out: Acute Myeloid Leukemia cell lines MV4-11 IC50
Procedure: (§1) Anticancer activity was tested against several standard cancer cell lines including brain, breast, Kaposi sarcoma, leukemia, lung, melanoma, tenosynovial giant cell tumor, ovarian, pancreatic, colon and prostate cancer. Cells were trypsinized and plated into 96 well plates in 50 μl of media and incubated overnight. The next day approximately 18 hours after plating, 50 μl of media containing the required flavonoid-based pharmaceutical composition was added per well. Cells were plated at a density so that 72 hours post drug addition, the cells will be in log phase (500)-2000 cells/well). The compounds and extracts were solubilized in Dimethyl sulfoxide (DMSO). The cells are allowed to proliferate for 72 hours 37° C. in humidified atmosphere of 5% CO2. The experiment is terminated using WST-1 (Roche®) 10 μl per well and absorbance is read at 450 nm %690 nm. The effect of drugs on growth is assessed as percent of cell viability. The IC50 values were determined from the extract dose versus control growth curves using Graphpad Prism® software. All experiments were carried out in duplicate and the mean results determined.

[2] = test system: MOLM-14 acute myeloid leukemia cell line; assay: WST-1 anticancer cell proliferation assay, MOLM-14; type: cell-based; details: Table 4, read-out: Acute Myeloid Leukemia cell lines MOLM-14 IC50
Procedure: as §1

[3] = test system: THP-1 acute myeloid leukemia cell line; assay: WST-1 anticancer cell proliferation assay, THP-1; type: cell-based; details: Table 4; read-out: Acute Myeloid Leukemia cell lines THP-1 IC50
Procedure: as §1

[4] = test system: Normal Bone marrow; assay: Cell viability, normal bone marrow; type: cell-based; details: Table 4
Procedure: as §1, with “Bioactivity of the above-described compounds has been verified by an anticancer cell proliferation assay using the WST-1 (4-[3-(4-iodophenyl)-2-(4-nitrophenyl)-2H-5-tetrazolio]-1, 3-benzene disulfonate) colorimetric assay by Roche Life Sciences®. Anticancer” for “Anticancer”

[5] = test system: MV4-11 AML; assay: In-vivo efficacy on MV4-11 AML (mice with FLT3-mutated acute myeloid leukemia); details: mouse
Excerpt: The results of the anticancer activity are presented in Tables 3 and 4 (above) and in FIG. 6, Hela cells shown at (A) and CMK cells at (B) and MV4-11 and MOLT-14 acute myeloid leukemia cells.

[6] = Toxicity and safety screen, in vitro profiling
Excerpt: This family of AML-therapeutic targets likewise has the flavone backbone (2-phenyl-1,4-benzopyrone) chemical structure, in this case more defined as shown below (see also FIG. 1B), or any pharmaceutically acceptable salt thereof: […]

[7] = molecular target: T1, FLT3 (Homo sapiens, UniProt P36888); type: binding; details: Table 4; read-out: Acute Myeloid Leukemia Kinases FLT3 IC50
T1 construct: made in house
T1 sequence (P36888 27-993): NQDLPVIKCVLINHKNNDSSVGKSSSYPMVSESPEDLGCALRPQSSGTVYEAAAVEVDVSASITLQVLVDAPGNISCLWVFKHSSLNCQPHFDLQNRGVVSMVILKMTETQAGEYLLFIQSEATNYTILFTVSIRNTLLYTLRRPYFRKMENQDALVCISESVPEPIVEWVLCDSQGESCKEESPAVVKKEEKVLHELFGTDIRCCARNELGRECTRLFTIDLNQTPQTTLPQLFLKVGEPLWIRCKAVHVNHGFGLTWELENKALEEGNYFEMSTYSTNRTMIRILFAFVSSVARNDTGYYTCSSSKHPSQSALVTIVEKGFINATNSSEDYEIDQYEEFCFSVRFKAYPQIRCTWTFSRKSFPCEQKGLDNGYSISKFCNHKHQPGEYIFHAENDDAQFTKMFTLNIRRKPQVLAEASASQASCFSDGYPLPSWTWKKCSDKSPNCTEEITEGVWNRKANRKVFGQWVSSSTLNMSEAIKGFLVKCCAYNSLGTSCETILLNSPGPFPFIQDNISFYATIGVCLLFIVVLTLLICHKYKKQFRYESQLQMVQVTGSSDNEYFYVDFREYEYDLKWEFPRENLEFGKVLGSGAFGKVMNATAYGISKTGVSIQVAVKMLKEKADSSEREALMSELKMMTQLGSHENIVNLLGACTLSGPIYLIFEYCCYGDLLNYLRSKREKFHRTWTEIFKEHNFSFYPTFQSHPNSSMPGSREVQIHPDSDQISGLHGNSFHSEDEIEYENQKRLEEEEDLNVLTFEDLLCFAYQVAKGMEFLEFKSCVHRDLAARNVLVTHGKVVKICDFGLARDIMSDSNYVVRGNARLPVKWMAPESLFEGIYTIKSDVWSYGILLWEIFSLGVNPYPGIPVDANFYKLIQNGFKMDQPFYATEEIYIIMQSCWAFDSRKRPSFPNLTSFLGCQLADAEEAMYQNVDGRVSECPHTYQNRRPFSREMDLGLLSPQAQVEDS
Procedure: (§2) Cannabis flavonoids and their analogs were subjected to kinase inhibition assay. The compounds were first screened at a single concentration of 10 μM in the primary assay. […] To determine the kd or IC50 values, competition binding assays were established, authenticated and executed as described previously. […] See also, Karaman et al., “A Quantitative Analysis Of Kinase Inhibitor Selectivity”, Nat. Biotechnol. […] For most assays, kinases were fused to T7 phage strains (Fabian, supra) and for the other assays, kinases were produced in HEK-293 cells after which they were tagged with DNA for quantitative PCR detection. In general, full-length constructs were used for small, single domain kinases, and catalytic domain constructs for large multi-domain kinases. […] The liganded beads were blocked with excess biotin and washed with blocking buffer (SeaBlock (Pierce), 1% BSA, 0.05% Tween 20, 1 mM DTT) to remove unbound ligand and to reduce non-specific phage binding. […] All reactions were performed in polypropylene 384-well plates in a final volume of 0.04 ml. […] The kinase concentration in the eluates was measured by quantitative PCR. An illustration of the kinase interaction process is presented below. Kd/IC50 values were determined using a standard dose response curve using the hill equation. Curves were fitted using a non-linear least square fit with the Levenberg-Marquardt algorithm.

[8] = molecular target: T2, FLT3(ITD) (Homo sapiens, UniProt P36888); type: binding; details: Table 4; read-out: Acute Myeloid Leukemia Kinases FLT3-ITD IC50
T2 construct: In general, full-length constructs were used for small, single domain kinases, and catalytic domain constructs for large multi-domain kinases; fused on or other part: T7 phage fusion or DNA tag for qPCR detection (general statement)
T2 sequence (P36888 1-993): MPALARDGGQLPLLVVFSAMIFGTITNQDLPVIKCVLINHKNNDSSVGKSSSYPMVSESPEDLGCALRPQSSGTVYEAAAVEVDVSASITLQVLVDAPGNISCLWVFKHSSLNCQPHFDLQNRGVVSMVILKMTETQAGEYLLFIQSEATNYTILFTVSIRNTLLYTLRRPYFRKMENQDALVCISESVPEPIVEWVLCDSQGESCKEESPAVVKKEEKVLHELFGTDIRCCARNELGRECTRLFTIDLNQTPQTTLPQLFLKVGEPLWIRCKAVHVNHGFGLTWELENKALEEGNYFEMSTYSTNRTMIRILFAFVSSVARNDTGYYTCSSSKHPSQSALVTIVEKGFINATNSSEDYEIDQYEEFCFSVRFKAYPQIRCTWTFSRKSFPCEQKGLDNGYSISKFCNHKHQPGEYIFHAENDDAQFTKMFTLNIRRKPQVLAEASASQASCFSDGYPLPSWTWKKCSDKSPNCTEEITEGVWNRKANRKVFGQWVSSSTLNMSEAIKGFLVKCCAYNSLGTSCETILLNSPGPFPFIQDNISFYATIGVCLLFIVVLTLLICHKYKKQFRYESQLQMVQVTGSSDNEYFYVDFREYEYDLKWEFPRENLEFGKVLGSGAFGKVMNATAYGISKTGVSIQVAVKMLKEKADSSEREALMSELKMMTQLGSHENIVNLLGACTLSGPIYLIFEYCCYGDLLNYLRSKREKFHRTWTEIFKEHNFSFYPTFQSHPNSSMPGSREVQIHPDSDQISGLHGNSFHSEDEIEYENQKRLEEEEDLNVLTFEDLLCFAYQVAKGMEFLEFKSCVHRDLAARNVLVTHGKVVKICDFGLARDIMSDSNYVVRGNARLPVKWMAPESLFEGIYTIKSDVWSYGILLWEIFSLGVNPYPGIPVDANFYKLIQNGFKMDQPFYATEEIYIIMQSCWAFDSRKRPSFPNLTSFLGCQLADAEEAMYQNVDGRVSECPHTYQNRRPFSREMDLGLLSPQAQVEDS
Procedure: as §2

[9] = test system: 60 cancer cell line panel; details: US National Cancer Institute 60 cancer cell line panel, NSC:719330; cited from earlier work

Structure (SMILES): COc1cc(-c2cc(=O)c3c(O)cc(O)cc3o2)ccc1O [FBLGS-70]
- IC50 [1]: 1250 nM
- IC50 [2]: 1700 nM
- IC50 [3]: > 100000 nM
- IC50 [4]: > 100000 nM
- in-vivo efficacy on MV4-11 AML [5]: significant in-vivo efficacy
- toxicity or safety screen issues [6]: no detectable toxicity or safety screen issues

Structure (SMILES): COc1ccc(-c2cc(=O)c3c(O)cc(O)cc3o2)cc1 [FBLGS-73]
- IC50 [7]: 127 nM and 152 nM
- IC50 [8]: 79 nM and 46 nM
- IC50 [2]: 3680 nM and 4860 nM

Structure (SMILES): COc1cc(-c2cc(=O)c3c(O)c(CC=C(C)C)c(O)cc3o2)ccc1O [cannflavin B]
- cytotoxicity against cancer cells [9]: not cytotoxic

Structure (SMILES): CO[C@@H]1[C@H](N(C)C(=O)c2ccccc2)C[C@H]2O[C@]1(C)n1c3ccccc3c3c4c(c5c6ccccc6n2c5c31)C(=O)NC4 [Midostaurin, reference compound]
- IC50 ([2]; Homo sapiens, MOLM-14): 22 nM
